Assay results: patent publication US20200308539A1, “AFFINITY-TAGGED PHOTOSWITCHES AND METHODS OF USE THEREOF” (The Regents of the University of California, priority 2017, published 2020)

What was measured:
mGluR5 [1] = biological target: T1, mGluR5 (Homo sapiens, UniProt P41594); assay: Calcium waves (FLUO-4) in HEK293 cells expressing mGluR5; format: cell-based; settings: HEK293 cells expressing mGluR5, FLUO-4
T1 construct: expressed in transfected cells; host or cells: HEK293 cells
Method: (§1) However, the goal was to target the native, unmodified proteins in cells, tissues or the intact organism, and this would require the affinity moiety to attach directly to the target protein, something that could impact function of the target protein. […] This notion was tested by asking whether there would be a functional impact of nanobody binding to an mGluR. For this purpose, mGluR5 was selected. mGluR5 is a Gq-coupled receptor whose activation stimulates phospholipase C to generate IP3 and trigger the release of calcium from internal stores, which could detect with the calcium indicator FLUO-4 that was loaded into the cells in its AM ester form. […] The activation of the receptor by NB-8260 could be directly detected using single molecule fluorescence resonance energy transfer (smFRET). SNAP-mGluR5 dimers labeled in HEK293 cells with a mixture of FRET donor and acceptor (green and red) BG dyes were isolated by cell lysis and immune-purified and immobilized at low density on a passivated glass surface (FIG. 6A) for total internal reflection fluorescence (TRIF) microscopy. Individual spots containing both the green and red dye (i.e. one on each subunit of the dimer) were selected for analysis and FRET levels measured: i) in the absence of ligand; ii) in 0.8 mM glutamate; iii) in the presence of a nanobody; or iv) in a combination of 0.8 mM glutamate and the nanobody. […]

mGluR5 [2] = assay: Single molecule FRET (smFRET) of SNAP-mGluR5 dimers, TIRF microscopy; format: biochemical; settings: 0.8 mM glutamate; absence of ligand ~0.5
Method: as §1

T1 sequence (P41594 21-1212): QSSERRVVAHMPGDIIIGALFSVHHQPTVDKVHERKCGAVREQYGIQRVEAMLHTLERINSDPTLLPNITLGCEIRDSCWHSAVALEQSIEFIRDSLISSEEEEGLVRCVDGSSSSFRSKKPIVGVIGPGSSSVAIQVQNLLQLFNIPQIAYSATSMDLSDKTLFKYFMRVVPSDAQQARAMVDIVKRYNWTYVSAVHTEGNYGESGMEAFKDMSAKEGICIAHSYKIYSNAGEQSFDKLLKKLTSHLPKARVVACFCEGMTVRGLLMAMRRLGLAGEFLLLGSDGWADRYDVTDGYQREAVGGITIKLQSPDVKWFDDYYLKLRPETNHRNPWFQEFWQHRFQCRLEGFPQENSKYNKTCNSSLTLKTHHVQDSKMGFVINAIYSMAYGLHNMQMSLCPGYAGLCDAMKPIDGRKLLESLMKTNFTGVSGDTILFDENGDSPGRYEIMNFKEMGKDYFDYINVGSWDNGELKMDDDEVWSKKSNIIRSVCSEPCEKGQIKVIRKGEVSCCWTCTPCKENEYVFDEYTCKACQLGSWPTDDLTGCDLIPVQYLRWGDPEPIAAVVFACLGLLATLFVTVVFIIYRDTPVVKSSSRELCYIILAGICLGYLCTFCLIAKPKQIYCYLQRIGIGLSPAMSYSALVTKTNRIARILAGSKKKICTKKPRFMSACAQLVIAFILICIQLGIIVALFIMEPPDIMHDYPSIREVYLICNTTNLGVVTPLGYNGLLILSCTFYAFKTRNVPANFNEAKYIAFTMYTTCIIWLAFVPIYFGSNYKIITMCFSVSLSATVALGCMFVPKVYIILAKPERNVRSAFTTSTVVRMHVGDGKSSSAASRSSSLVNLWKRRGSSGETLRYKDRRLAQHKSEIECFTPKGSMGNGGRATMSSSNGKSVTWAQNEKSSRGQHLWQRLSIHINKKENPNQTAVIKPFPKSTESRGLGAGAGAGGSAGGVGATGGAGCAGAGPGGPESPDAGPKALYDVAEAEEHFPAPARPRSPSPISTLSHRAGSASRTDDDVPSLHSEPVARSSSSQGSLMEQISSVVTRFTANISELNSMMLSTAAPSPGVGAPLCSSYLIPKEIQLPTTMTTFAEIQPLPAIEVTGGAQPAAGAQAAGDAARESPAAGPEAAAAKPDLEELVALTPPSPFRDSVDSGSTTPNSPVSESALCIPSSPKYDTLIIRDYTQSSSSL

Q: `N[C@@H](CCC(=O)O)C(=O)O` [glutamate] was tested. Which “activation of calcium waves” value (mGluR5 [1]) did it give?
A: activates calcium waves

Q: And the FRET level (mGluR5 [2])?
A: ~0.3
